Values belong to the compound of their own block, whether it stands above or below them.
Experiments:
SPEG = target: T1, SPEG (Homo sapiens, UniProt Q15772); assay: Imatinib-matrix competition in K562 lysate; format: binding; details: read-out: RB50 (the source's name)
T1 construct: endogenous in cells; host or cells: K562
From the text: (§1) Data were visualized for further analysis using Spotfire DXP.

RP1 = target: T2, RP1 (Homo sapiens, UniProt P56715); assay: Imatinib-matrix competition in K562 lysate; format: binding; details: read-out: RB50 (the source's name)
T2 construct: endogenous in cells; host or cells: K562
From the text: as §1

RPS6KB2 = target: T3, RPS6KB2 (Homo sapiens, UniProt Q9UBS0); assay: Imatinib-matrix competition in K562 lysate; format: binding; details: read-out: RB50 (the source's name)
T3 construct: endogenous in cells; host or cells: K562
From the text: as §1

TKT = target: T4, TKT (Homo sapiens, UniProt P29401); assay: Imatinib-matrix competition in K562 lysate; format: binding; details: read-out: RB50 (the source's name)
T4 construct: endogenous in cells; host or cells: K562
From the text: as §1

VRK1 = target: T5, VRK1 (Homo sapiens, UniProt Q99986); assay: Imatinib-matrix competition in K562 lysate; format: binding; details: read-out: RB50 (the source's name)
T5 construct: endogenous in cells; host or cells: K562
T5 sequence (Q99986 1-396): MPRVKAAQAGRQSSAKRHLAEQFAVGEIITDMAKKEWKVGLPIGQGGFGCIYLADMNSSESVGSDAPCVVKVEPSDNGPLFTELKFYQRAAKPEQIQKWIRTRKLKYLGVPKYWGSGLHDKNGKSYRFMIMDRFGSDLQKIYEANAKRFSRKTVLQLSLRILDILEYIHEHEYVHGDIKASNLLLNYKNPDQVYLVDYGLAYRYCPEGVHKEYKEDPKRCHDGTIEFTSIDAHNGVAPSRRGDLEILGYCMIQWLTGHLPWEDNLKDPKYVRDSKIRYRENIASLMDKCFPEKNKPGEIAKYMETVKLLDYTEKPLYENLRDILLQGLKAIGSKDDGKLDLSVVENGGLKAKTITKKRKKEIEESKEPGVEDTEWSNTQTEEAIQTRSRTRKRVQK
From the text: as §1

TFG = target: T6, TFG (Homo sapiens, UniProt Q92734); assay: Imatinib-matrix competition in K562 lysate; format: binding; details: read-out: RB50 (the source's name)
T6 construct: endogenous in cells; host or cells: K562
From the text: as §1

BUB1B = target: T7, BUB1B (Homo sapiens, UniProt O60566); assay: Imatinib-matrix competition in K562 lysate; format: binding; details: read-out: RB50 (the source's name)
T7 construct: endogenous in cells; host or cells: K562
From the text: as §1

ATR = target: T8, ATR (Homo sapiens, UniProt Q13535); assay: Imatinib-matrix competition in K562 lysate; format: binding; details: read-out: RB50 (the source's name)
T8 construct: endogenous in cells; host or cells: K562
From the text: as §1

TRRAP = target: T9, TRRAP (Homo sapiens, UniProt Q9Y4A5); assay: Imatinib-matrix competition in K562 lysate; format: binding; details: read-out: RB50 (the source's name)
T9 construct: endogenous in cells; host or cells: K562
T9 sequence (Q9Y4A5 whole entry): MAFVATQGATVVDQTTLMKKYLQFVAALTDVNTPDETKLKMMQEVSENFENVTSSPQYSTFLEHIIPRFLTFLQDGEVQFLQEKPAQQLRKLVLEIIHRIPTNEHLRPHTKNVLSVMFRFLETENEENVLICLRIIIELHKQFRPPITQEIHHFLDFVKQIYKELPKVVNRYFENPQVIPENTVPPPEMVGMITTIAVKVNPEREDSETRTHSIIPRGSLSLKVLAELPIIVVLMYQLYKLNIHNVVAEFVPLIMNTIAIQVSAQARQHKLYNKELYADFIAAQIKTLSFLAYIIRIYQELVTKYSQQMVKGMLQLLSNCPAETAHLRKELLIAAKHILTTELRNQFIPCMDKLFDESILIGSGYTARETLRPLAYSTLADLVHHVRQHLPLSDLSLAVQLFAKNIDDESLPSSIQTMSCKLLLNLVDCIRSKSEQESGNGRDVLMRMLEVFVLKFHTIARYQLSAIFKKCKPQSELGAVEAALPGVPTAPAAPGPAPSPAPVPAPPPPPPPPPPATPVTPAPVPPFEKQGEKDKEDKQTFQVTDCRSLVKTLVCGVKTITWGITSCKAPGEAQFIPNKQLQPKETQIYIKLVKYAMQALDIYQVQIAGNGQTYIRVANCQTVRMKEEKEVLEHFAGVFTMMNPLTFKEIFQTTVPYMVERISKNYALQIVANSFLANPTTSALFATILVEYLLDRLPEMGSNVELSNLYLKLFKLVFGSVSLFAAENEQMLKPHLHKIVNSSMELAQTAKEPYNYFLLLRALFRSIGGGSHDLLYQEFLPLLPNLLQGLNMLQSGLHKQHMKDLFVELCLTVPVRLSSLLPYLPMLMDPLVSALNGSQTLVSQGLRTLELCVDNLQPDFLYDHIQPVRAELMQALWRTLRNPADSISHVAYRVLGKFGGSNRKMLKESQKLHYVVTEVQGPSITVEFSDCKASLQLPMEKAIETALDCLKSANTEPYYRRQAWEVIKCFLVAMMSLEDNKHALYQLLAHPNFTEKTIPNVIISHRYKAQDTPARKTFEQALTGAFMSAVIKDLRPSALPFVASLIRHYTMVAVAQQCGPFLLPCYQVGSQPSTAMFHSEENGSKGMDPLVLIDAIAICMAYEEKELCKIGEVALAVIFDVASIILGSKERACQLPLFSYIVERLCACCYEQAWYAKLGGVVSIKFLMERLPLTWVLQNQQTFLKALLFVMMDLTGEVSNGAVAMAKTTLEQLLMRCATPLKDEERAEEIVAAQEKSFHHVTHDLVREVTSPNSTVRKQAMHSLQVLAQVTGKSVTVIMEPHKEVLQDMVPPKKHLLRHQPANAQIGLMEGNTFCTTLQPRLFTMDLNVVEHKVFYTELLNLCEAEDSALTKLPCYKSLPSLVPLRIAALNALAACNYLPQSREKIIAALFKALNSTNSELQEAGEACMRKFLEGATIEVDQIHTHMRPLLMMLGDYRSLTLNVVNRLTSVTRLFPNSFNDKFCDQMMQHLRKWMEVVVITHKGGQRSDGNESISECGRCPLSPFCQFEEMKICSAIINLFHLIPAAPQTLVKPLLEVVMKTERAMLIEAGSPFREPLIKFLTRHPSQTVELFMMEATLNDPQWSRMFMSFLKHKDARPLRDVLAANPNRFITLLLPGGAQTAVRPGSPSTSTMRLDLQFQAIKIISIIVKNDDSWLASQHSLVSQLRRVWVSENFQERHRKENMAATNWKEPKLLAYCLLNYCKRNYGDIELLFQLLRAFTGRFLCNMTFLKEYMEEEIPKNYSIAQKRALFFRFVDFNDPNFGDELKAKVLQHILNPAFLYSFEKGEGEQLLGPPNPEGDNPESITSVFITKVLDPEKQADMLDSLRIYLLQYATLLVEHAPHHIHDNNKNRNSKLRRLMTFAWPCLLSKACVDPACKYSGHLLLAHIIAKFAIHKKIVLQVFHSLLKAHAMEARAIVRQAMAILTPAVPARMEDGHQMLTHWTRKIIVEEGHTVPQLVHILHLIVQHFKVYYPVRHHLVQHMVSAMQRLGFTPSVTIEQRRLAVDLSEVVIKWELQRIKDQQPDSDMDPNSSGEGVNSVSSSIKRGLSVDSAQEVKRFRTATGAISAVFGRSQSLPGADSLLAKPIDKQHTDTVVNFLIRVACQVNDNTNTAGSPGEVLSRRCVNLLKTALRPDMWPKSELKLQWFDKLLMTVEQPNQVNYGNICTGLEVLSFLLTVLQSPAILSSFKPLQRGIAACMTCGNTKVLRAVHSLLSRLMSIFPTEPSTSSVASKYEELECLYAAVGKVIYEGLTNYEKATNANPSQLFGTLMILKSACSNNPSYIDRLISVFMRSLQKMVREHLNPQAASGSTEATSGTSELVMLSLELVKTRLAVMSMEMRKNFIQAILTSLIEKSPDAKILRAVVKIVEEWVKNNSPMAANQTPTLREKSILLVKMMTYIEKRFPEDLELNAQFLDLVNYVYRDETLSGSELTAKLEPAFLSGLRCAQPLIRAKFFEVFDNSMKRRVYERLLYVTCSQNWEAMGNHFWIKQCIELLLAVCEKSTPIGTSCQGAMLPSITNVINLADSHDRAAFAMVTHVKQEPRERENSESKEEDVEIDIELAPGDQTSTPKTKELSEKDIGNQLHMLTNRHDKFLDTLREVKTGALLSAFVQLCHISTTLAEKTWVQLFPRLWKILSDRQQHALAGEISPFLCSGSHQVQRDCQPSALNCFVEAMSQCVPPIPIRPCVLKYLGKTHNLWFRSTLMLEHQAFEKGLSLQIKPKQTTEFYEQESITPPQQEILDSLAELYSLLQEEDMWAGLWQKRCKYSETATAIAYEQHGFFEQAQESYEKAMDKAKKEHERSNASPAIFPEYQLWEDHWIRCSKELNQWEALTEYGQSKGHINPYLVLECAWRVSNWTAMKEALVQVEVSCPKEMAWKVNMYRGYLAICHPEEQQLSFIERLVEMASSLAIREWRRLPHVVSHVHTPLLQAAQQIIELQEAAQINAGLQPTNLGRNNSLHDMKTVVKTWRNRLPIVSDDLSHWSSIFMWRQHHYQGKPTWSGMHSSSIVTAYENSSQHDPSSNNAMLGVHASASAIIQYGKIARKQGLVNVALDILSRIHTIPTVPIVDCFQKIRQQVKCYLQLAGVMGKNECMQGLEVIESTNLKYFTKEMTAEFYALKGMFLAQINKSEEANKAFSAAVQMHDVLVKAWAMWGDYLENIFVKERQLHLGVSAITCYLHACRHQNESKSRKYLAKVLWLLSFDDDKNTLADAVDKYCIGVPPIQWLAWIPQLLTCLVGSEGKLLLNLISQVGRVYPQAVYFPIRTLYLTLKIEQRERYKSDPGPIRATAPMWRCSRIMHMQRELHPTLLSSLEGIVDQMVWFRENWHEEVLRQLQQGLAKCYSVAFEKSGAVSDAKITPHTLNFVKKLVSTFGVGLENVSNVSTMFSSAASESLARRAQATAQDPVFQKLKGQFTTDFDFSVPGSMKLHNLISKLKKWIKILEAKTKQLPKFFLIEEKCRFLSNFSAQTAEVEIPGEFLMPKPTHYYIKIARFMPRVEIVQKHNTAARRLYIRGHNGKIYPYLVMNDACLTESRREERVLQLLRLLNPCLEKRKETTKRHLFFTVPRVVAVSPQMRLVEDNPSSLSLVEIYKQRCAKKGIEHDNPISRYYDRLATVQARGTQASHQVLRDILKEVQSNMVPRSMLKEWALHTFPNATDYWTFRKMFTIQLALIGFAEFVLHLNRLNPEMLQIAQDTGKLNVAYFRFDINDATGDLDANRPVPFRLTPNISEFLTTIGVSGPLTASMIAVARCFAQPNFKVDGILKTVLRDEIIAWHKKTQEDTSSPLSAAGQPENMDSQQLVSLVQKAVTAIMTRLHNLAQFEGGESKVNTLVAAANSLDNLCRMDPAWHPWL
From the text: as §1

TRIM28 = target: T10, TRIM28 (Homo sapiens, UniProt Q13263); assay: Imatinib-matrix competition in K562 lysate; format: binding; details: read-out: RB50 (the source's name)
T10 construct: endogenous in cells; host or cells: K562
From the text: as §1

SMG1 = target: T11, SMG1 (Homo sapiens, UniProt Q96Q15); assay: Imatinib-matrix competition in K562 lysate; format: binding; details: read-out: RB50 (the source's name)
T11 construct: endogenous in cells; host or cells: K562
From the text: as §1

PSKH2 = PSKH2 (Homo sapiens, UniProt Q96QS6); assay: biochemical
NRBP1 = NRBP1 (Homo sapiens, UniProt Q9UHY1); assay: biochemical
ATM = ATM (Homo sapiens, UniProt Q13315); assay: biochemical
MAP3K11 = target: T12, MAP3K11 (Homo sapiens, UniProt Q16584); assay: KAM-matrix competition in K562 lysate; format: binding; details: relative to 0 uM KAM = 0;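 also: median log10 fold change of treatment over DMSO control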
T12 construct: endogenous in cells; host or cells: K562
T12 sequence (Q16584 whole entry): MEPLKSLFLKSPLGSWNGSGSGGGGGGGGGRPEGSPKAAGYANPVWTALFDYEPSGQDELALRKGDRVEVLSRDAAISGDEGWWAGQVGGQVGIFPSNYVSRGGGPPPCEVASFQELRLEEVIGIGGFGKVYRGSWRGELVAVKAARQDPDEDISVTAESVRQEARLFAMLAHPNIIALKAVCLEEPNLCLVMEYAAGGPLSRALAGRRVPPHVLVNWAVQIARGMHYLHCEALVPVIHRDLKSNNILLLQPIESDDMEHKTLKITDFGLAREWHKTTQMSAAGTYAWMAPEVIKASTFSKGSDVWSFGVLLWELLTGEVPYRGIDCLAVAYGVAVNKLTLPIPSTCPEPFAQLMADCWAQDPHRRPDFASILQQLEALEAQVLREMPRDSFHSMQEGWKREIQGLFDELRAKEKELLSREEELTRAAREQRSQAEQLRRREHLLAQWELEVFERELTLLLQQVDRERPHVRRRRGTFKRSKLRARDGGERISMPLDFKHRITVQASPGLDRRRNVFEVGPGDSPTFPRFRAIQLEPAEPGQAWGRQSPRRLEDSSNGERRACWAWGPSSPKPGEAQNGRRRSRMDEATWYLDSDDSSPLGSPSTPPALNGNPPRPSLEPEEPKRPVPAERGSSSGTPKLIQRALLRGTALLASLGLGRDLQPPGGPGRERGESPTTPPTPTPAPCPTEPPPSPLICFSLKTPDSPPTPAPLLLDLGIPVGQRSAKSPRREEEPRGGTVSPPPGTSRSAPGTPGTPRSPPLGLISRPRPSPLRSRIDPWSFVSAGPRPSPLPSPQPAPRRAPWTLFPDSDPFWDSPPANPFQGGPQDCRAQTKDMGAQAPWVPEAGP
Experimental: (§2) Supplement 12953_2017_125_MOESM1_ESM.zip/MS_Supp Info.xlsx, sheet "KAM" | column: 10 uM KAM; 1 uM KAM; 0.1 uM KAM; 0.001 uM KAM

CDK6 = target: T13, CDK6 (Homo sapiens, UniProt Q00534); assay: KAM-matrix competition in K562 lysate; format: binding; details: relative to 0 uM KAM = 0;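 also: median log10 fold change of treatment over DMSO control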
T13 construct: endogenous in cells; host or cells: K562
T13 sequence (Q00534 whole entry): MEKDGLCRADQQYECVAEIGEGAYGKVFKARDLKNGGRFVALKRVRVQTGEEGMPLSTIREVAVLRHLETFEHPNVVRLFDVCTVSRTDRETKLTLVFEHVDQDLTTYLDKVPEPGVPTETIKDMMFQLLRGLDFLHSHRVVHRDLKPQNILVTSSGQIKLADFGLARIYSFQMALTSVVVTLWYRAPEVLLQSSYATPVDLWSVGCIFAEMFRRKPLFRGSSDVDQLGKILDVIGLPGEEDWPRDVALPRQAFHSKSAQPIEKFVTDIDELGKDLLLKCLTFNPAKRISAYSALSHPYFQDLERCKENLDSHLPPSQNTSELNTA
Experimental: as §2

RPS6KC1 = target: T14, RPS6KC1 (Homo sapiens, UniProt Q96S38); assay: KAM-matrix competition in K562 lysate; format: binding;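 as to 0.001 uM KAM: median log10 fold change of treatment over DMSO control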;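 as to 0.1 uM KAM: median log10 fold change of treatment over DMSO control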;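 as to 1 uM KAM: median log10 fold change of treatment over DMSO control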;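 as to 10 uM KAM: median log10 fold change of treatment over DMSO control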
T14 construct: endogenous in cells; host or cells: K562 cell lysate
T14 sequence (Q96S38 1-1066): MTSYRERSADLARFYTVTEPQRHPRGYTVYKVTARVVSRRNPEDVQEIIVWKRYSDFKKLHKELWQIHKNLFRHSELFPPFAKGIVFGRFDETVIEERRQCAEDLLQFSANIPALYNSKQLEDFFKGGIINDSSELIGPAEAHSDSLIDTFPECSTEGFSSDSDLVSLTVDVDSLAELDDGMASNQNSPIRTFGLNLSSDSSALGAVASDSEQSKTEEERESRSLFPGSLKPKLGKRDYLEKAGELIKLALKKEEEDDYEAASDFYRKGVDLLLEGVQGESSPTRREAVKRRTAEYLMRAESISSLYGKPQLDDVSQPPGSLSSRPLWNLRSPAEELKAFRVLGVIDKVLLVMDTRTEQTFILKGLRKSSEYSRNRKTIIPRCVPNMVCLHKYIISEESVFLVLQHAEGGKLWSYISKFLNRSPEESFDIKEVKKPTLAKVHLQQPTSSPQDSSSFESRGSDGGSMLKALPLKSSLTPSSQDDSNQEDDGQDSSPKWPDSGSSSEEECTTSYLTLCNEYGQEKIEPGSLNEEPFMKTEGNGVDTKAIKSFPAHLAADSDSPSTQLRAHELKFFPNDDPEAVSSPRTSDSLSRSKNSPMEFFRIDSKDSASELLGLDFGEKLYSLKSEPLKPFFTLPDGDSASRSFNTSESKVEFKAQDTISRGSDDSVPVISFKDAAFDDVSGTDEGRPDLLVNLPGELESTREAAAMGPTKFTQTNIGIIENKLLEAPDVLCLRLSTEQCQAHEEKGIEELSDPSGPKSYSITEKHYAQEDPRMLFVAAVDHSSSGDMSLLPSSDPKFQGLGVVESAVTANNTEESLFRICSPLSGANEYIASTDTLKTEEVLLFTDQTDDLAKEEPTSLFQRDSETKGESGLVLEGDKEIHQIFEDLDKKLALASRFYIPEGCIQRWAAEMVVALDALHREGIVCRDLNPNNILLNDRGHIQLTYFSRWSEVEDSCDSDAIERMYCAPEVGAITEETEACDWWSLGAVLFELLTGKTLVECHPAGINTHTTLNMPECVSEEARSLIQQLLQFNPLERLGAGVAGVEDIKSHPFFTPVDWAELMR
Experimental: Supplement 12953_2017_125_MOESM1_ESM.zip/MS_Supp Info.xlsx, sheet "KAM" | column: 10 uM KAM; 1 uM KAM; 0.1 uM KAM; 0.001 uM KAM; RB50

- IC50 (SPEG): > 10 µM
- IC50 (RP1): > 10 µM
- IC50 (RPS6KB2): > 10 µM
- IC50 (TKT): > 10 µM
- IC50 (VRK1): > 10 µM
- IC50 (TFG): > 10 µM
- IC50 (BUB1B): > 10 µM
- IC50 (ATR): > 10 µM
- IC50 (TRRAP): > 10 µM
- IC50 (TRIM28): > 10 µM
- IC50 (SMG1): > 10 µM
- IC50 (PSKH2): > 10 µM
- IC50 (NRBP1): > 10 µM
- IC50 (ATM): > 10 µM
Compound: Cc1ccc(NC(=O)c2ccc(CN3CCN(C)CC3)cc2)cc1Nc1nccc(-c2cccnc2)n1 [Imatinib]

Compound: N#CCc1ccc(Nc2nc(NCCCN)cc(Nc3cc(C4CC4)[nH]n3)n2)cc1 [KAM]
- 0.001 uM KAM (MAP3K11): -0.02883
- 0.1 uM KAM (MAP3K11): -0.2112
- 1 uM KAM (MAP3K11): -0.4525
- 10 uM KAM (MAP3K11): -0.59
- 0.001 uM KAM (CDK6): 0.01418
- 0.1 uM KAM (CDK6): -0.05531
- 1 uM KAM (CDK6): -0.08871
- 10 uM KAM (CDK6): -0.05328
- IC50 (RPS6KC1; KAM 0.001-10 uM, read-out: RB50 (the source's name)): > 10 µM
- 0.001 uM KAM (RPS6KC1; relative to 0 uM KAM = 0): -0.005381
- 0.1 uM KAM (RPS6KC1; relative to 0 uM KAM = 0): -0.07914
- 1 uM KAM (RPS6KC1; relative to 0 uM KAM = 0): -0.09953
- 10 uM KAM (RPS6KC1; relative to 0 uM KAM = 0): -0.2964

Source: article PMC5513037, “Examining the influence of specificity ligands and ATP-competitive ligands on the overall effectiveness of bivalent kinase inhibitors” (Proteome Science, 2017)
